The numbers were not newly measured in patent US11612614B2, “Isomorphs of Remdesivir and methods for synthesis of same” (Anzalp Pharmasolutions Pvt. Ltd., priority 2020, dated 2023), which cites them from elsewhere.

Assay in data set [1]: not given
This is another data set of the same source.

Entries after “also recorded” stand apart in the source; their conditions may differ.

As for `CCC(CC)COC(=O)[C@H](C)N[P@](=O)(OC[C@H]1O[C@@](C#N)(c2ccc3c(N)ncnn23)[C@H](O)[C@@H]1O)Oc1ccccc1` [Remdesivir, 2-ethylbutyl (2S)-2-[[[(2R,3S,4R,5R)-5-(4-aminopyrrolo[2,1-f][1,2,4]triazin-7-yl)-5-cyano-3,4-dihydroxyoxolan-2-yl]methoxy-phenoxyphosphoryl]amino]propanoate], the “chemical stability in aqueous media” value is given as “chemically unstable”. Further, the solubility in ethanol entry in data set [1] (ethanol) is given as “soluble”. For the same compound, the solubility in water entry in data set [1] (water) is given as “practically insoluble; also recorded: relatively insoluble”.
